Type in all cases: in vivo
Assay [1] deals with “Momotaro” tomato. As to the kind of experiment: Example 1 salt stress tolerance imparting test (tomato, hydroponic, Otsuka 1/2A + NaCl). Conditions: 2 weeks. As to the method:
(1) Salt stress-free test conditions: NaCl concentration (water potential by Nan): 0 ppm (0 MPa). Other cultivation conditions were as the same as the conditions of the drying stress test.
When the leaves in the 2-leaf stage fully unfolded, the soil on the tomato roots was carefully washed away with running water, and a test was performed.
Method of Salt Stress Tolerance Imparting Test
The environmental conditions in a climatic chamber were controlled so as to have a temperature of 23° C., an illuminance by a fluorescent light of 5000 Lux, and a daily light-dark cycle of a 16-hour light period and an 8-hour dark period. […] A treatment solution containing a compound of Table 1 in a specific concentration (the remainder was water) was prepared and sprayed onto the leaves or applied to the underground portion. In addition, a control plot to which no NaCl was added, not imposing a salt stress (this is a control plot for plant body weight 2 for Formula (ii) and is a stress-free control plot) and a control plot to which NaCl was added in various concentrations, imposing a salt stress, and to which the treatment solution was not applied (this is a control plot for plant body weight 1 for Formula (ii) and is a control plot including a salt stress) were prepared as controls. Ten specimens were prepared for each of the test plot and the control plots, and a plant stress level and an extent of imparting plant stress tolerance were calculated according to Formulas (II) above using as a fresh plant body weight the average of the fresh plant body weights of each specimen 2 weeks after the beginning of the test.

The subject of assay [2] is “Momotaro” tomato. As to the kind of experiment: Example 3 drying stress tolerance imparting test (tomato). Conditions: 3 weeks. As to the method:
Other cultivation conditions were as with the conditions of the drying stress test. Drying stress conditions: soil pF value: 2.3, 2.5, or 2.9, cultivation temperature: 23° C., relative humidity: 50%, illuminance: 5000 Lux (fluorescent light), light/dark cycle: 16 hours/8 hours (2) Cultivation period: 3 weeks (3) Soil: Kureha gardening soil manufactured by Kureha Corporation (fertilizer components: N:P:K=0.4:1.9:0.6 g/kg soil) (4) Plant preparation: A 50-cell tray was filled with Kureha gardening soil manufactured by Kureha Corporation (fertilizer components: N:P:K=0.4:1.9:0.6 g/kg soil), and seeds of a “Momotaro” tomato were sowed, thinly covered with Kureha gardening soil, and sufficiently watered to allow the seeds to sprout. When the leaves in the 2-leaf stage fully unfolded, the soil on the tomato roots was carefully washed away with running water, and a test was performed. (5) The chemicals used and the amount of a treatment solution applied were as in Example 1. (6) Amount of treatment solution applied: 10 ml/specimen for leaf spraying, 50 ml/specimen for fertigation Method of Drying Stress Tolerance Imparting Test Five tomato specimens as prepared above were planted in a 60-cm planter placed on a plant culture rack in an air-conditioned room. […] From immediately after planting the tomatoes, a treatment solution of Table 1 was sprayed onto the leaves or applied to the underground portions once a week. […] Five specimens (per planter) were prepared for each of the test plot and the control plots, plant bodies were collected 3 weeks after the beginning of the test such that the roots were not cut, the soil was washed away with running water, the fresh plant body-weights were measured, and a plant stress level and an extent of imparting plant stress tolerance were calculated according to Formula (ii) and (iii) above using the average of the weights.

The subject of assay [3] is tomato. The assay can be described thus: Example 7 drying stress test (tomato), soil culture. The conditions noted are these: 23° C., 100 ppm, 2 weeks; for Fresh weight, relative value (untreated plot = 100), Comparison 1: stress-free: tomato soil culture, EC 1, pF 1.7, two-leaf stage; for Fresh weight, relative value (untreated plot = 100), Test 1 / Fresh weight, relative value (untreated plot = 100), Test 4 / Fresh weight, relative value (untreated plot = 100), Test 2 / Fresh weight, relative value (untreated plot = 100), Test 3: tomato soil culture; for Fresh weight, relative value (untreated plot = 100), Test 1: EC 1, pF 2.8, two-leaf stage; for Fresh weight, relative value (untreated plot = 100), Test 4: EC 1, pF 3.5, five-leaf stage; for Fresh weight, relative value (untreated plot = 100), Test 2: EC 1, pF 3.5, two-leaf stage; for Fresh weight, relative value (untreated plot = 100), Test 3: EC 1, pF 4.1, two-leaf stage. As to the method: (§1) The environmental conditions in a climatic chamber were controlled so as to have a temperature of 23° C., an illuminance by a fluorescent light of 5000 Lux, and a daily light-dark cycle of a 16-hour light period and an 8-hour dark period. Tomatoes as prepared above were transplanted in size-3 (9 cm) pots. During the test period, the pF value was controlled by adding a suitable amount of tap water once a day so as to attain a specific drying stress value. A treatment solution containing a compound of Table 1 in a specific concentration (the remainder was water) was prepared and sprayed onto the leaves or applied to the underground portions. […] A comparative example was constructed to reflect the drying stress-free optimum cultivation conditions to investigate the plant energizing ability. […] Moreover, when the products of the present invention and the comparative products were compared, the stress tolerance imparting ability of the products of the present invention was higher in respective drying stress conditions.

The subject of assay [4] is tomato. The assay can be described thus: Example 8 temperature stress test (tomato), soil culture. The conditions noted are these: 100 ppm, 2 weeks; for Fresh weight, relative value (untreated plot = 100), Comparison 1: stress-free: tomato soil culture, cultivation temperature 23, EC 1, pF 1.7, two-leaf stage; for Fresh weight, relative value (untreated plot = 100), Test 1 / Fresh weight, relative value (untreated plot = 100), Test 2 / Fresh weight, relative value (untreated plot = 100), Test 3 / Fresh weight, relative value (untreated plot = 100), Test 4: tomato soil culture; for Fresh weight, relative value (untreated plot = 100), Test 1: cultivation temperature 10, EC 1, pF 1.7, two-leaf stage; for Fresh weight, relative value (untreated plot = 100), Test 2: cultivation temperature 16, EC 1, pF 1.7, two-leaf stage; for Fresh weight, relative value (untreated plot = 100), Test 3: cultivation temperature 29, EC 1, pF 1.7, two-leaf stage; for Fresh weight, relative value (untreated plot = 100), Test 4: cultivation temperature 35, EC 1, pF 1.7, two-leaf stage. As to the method:
as §1, with “Other Conditions were as in Example 5. The” for “The”, “have” for “have a temperature of 23° C.,”, “Lux,” for “Lux, and”, “period, and various temperatures.” for “period.”, “pots.” for “pots. During the test period, the pF value was controlled by adding a suitable amount of tap water once a day so as to attain a specific drying stress value.”, “temperature” for “drying”

[5] abbreviates: pF 2.3, leaf, 100 ppm once a week.

“Sucrose fatty acid ester (C18, HLB = 15) [Product of present invention 20]”: the “Extent of imparting plant stress tolerance” value (shortened to “Extent”) in the assay with “Momotaro” tomato [1] (NaCl 3510 ppm, leaf, 100 ppm) amounted to 113%. The “Extent” value with “Momotaro” tomato [2] (setting [5]) is recorded as 117%. Moreover, in the assay on tomato [3] (leaf), the “Fresh weight, relative value (untreated plot = 100), Comparison 1” value (“Fresh weight, relative value … Comparison 1” below) turned out to be 103; the “Fresh weight, relative value (untreated plot = 100), Test 1” value (shortened to “Fresh weight, relative value … Test 1”) was found to be 119; the “Fresh weight, relative value (untreated plot = 100), Test 4” value (shortened to “Fresh weight, relative value … Test 4”) worked out at 136; the “Fresh weight, relative value (untreated plot = 100), Test 2” value (shortened to “Fresh weight, relative value … Test 2”) worked out at 139. Moreover, the “Fresh weight, relative value (untreated plot = 100), Test 3” value (shortened to “Fresh weight, relative value … Test 3”) in the assay on tomato [3] (leaf) was 124. For the same molecule, in the assay with tomato [4] (leaf), the “Fresh weight, relative value … Comparison 1” value was 102; the “Fresh weight, relative value … Test 1” value was determined as 114; the “Fresh weight, relative value … Test 2” value was 116; the “Fresh weight, relative value … Test 3” value came to 133. For the same molecule, the “Fresh weight, relative value … Test 4” value with tomato [4] (leaf) is on record as 122.

For the molecule “POE (20) sorbitan monooleic acid ester [Product of present invention 1]”, the “Extent” value was 113% in the assay on “Momotaro” tomato [1] (NaCl 1500 ppm, leaf, 100 ppm); 124% in the assay on “Momotaro” tomato [1] (NaCl 1500 ppm, underground portion, 100 ppm); 111% in the assay on “Momotaro” tomato [1] (NaCl 3510 ppm, leaf, 1 ppm); 112% in the assay on “Momotaro” tomato [1] (NaCl 3510 ppm, leaf, 10 ppm); 113% with “Momotaro” tomato [1] (NaCl 3510 ppm, leaf, 100 ppm); 118% in the assay with “Momotaro” tomato [1] (NaCl 3510 ppm, leaf, 1000 ppm). In addition, the “Extent” value with “Momotaro” tomato [1] (NaCl 3510 ppm, underground portion, 100 ppm) turned out to be 130%; with “Momotaro” tomato [1] (NaCl 5000 ppm, leaf, 100 ppm), 125%; in the assay on “Momotaro” tomato [1] (NaCl 5000 ppm, underground portion, 100 ppm) it was 135%; in the assay on “Momotaro” tomato [2] (pF 2.3, leaf, 1 ppm once a week), 112%; in the assay on “Momotaro” tomato [2] (pF 2.3, leaf, 10 ppm once a week) it was 113%; in the assay on “Momotaro” tomato [2] (setting [5]), 113%. For the same molecule, the “Extent” value in the assay on “Momotaro” tomato [2] (pF 2.3, leaf, 1000 ppm once a week) was 117%; in the assay on “Momotaro” tomato [2] (pF 2.3, underground portion, 100 ppm once a week), 129%; in the assay on “Momotaro” tomato [2] (pF 2.5, leaf, 100 ppm once a week), 117%; in the assay on “Momotaro” tomato [2] (pF 2.5, underground portion, 100 ppm once a week), 128%; in the assay on “Momotaro” tomato [2] (pF 2.9, leaf, 100 ppm once a week), 124%; with “Momotaro” tomato [2] (pF 2.9, underground portion, 100 ppm once a week), 135%. Besides, the “Fresh weight, relative value … Comparison 1” value with tomato [3] (underground portion) and in the assay on tomato [4] (underground portion) was 103 each time. Besides, the entries for the “Fresh weight, relative value … Test 1” value in the assay on tomato [3] (underground portion) and in the assay with tomato [4] (underground portion) were 134 and 128, respectively. For the same molecule, the “Fresh weight, relative value … Test 4” value with tomato [3] (underground portion) stood at 160; with tomato [4] (underground portion) it was 138. Besides, the “Fresh weight, relative value … Test 2” value in the assay with tomato [3] (underground portion) is 188; in the assay on tomato [4] (underground portion) it was 131. The “Fresh weight, relative value … Test 3” value in the assay on tomato [3] (underground portion) is given as 145; in the assay with tomato [4] (underground portion), 158.

Turning to “POE (20) sorbitan monolauric acid ester [Product of present invention 12]”, the “Extent” value in the assay on “Momotaro” tomato [1] (NaCl 3510 ppm, leaf, 100 ppm) stood at 116%. Besides, in the assay with “Momotaro” tomato [1] (NaCl 3510 ppm, leaf, 200 ppm), the “Extent” value stood at 120%. The “Extent” value with “Momotaro” tomato [2] (setting [5]) was found to be 115%. Besides, the “Extent” value in the assay with “Momotaro” tomato [2] (pF 2.3, leaf, 200 ppm once a week) is recorded as 118%. In addition, in the assay with tomato [3] (leaf), the “Fresh weight, relative value … Comparison 1” value came to 101; the “Fresh weight, relative value … Test 1” value came out at 130; the “Fresh weight, relative value … Test 4” value stood at 148; the “Fresh weight, relative value … Test 2” value turned out to be 162. In the assay with tomato [3] (leaf), the “Fresh weight, relative value … Test 3” value was 135. Further, in the assay with tomato [4] (leaf), the “Fresh weight, relative value … Comparison 1” value turned out to be 102; the “Fresh weight, relative value … Test 1” value was found to be 124; the “Fresh weight, relative value … Test 2” value turned out to be 126; the “Fresh weight, relative value … Test 3” value is 144. Also, the “Fresh weight, relative value … Test 4” value with tomato [4] (leaf) was determined as 132.

Consider `C[N+](C)(C)CC(=O)[O-]` [Comparative product 3, Glycine betaine, reference compound], for which the “Extent” value in the assay with “Momotaro” tomato [1] (NaCl 3510 ppm, leaf, 100 ppm) is 103%. For the same molecule, the “Extent” value in the assay on “Momotaro” tomato [2] (setting [5]) is on record as 103%. Also, in the assay on tomato [3] (leaf), the “Fresh weight, relative value … Comparison 1” value is 102; the “Fresh weight, relative value … Test 1” value worked out at 102; the “Fresh weight, relative value … Test 4” value was 101; the “Fresh weight, relative value … Test 2” value came to 103. Besides, in the assay with tomato [3] (leaf), the “Fresh weight, relative value … Test 3” value came out at 103. For the same molecule, in the assay on tomato [4] (leaf), the “Fresh weight, relative value … Comparison 1” value was determined as 102; the “Fresh weight, relative value … Test 1” value came to 100; the “Fresh weight, relative value … Test 2” value turned out to be 100; the “Fresh weight, relative value … Test 3” value is 101. Also, the “Fresh weight, relative value … Test 4” value in the assay on tomato [4] (leaf) amounted to 101.

Values taken from patent US20110100079A1, “METHOD FOR IMPARTING STRESS TOLERANCE TO PLANT” (priority 2007, published 2011).
